# Several values for one entry are separate records, joined by “and”; a condition that tells them apart may be missing. Equal values may be shown once.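 All cell lines were grown in 96-well plates and treated with compound for 48 hours. GI50 is the concentration that inhibits growth by half. TGI: concentration producing complete growth inhibition.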
# What was measured:
# Experiment in all cases: NCI tumour cell line growth inhibition, 48 h
# BT-549 breast = system: BT-549 breast
# DU-145 prostate = system: DU-145 prostate
# HCT-116 colon = system: HCT-116 colon
# MALME-3M melanoma = system: MALME-3M melanoma
# MDA-MB-435 = system: MDA-MB-435
# NCI-H226 lung = system: NCI-H226 lung
# NCI-H522 lung = system: NCI-H522 lung
# NCI/ADR-RES ovarian = system: NCI/ADR-RES ovarian
# OVCAR-3 ovarian = system: OVCAR-3 ovarian
# OVCAR-5 ovarian = system: OVCAR-5 ovarian
# OVCAR-8 ovarian = system: OVCAR-8 ovarian
# T-47D breast = system: T-47D breast
# UACC-257 melanoma = system: UACC-257 melanoma
# KM20L2 colon = system: KM20L2 colon
Structure (SMILES),TGI (BT-549 breast) [µM],TGI (DU-145 prostate) [µM],TGI (HCT-116 colon) [µM],TGI (MALME-3M melanoma),TGI (MDA-MB-435) [µM],TGI (NCI-H226 lung) [µM],TGI (NCI-H522 lung),TGI (NCI/ADR-RES ovarian) [µM],TGI (OVCAR-3 ovarian) [µM],TGI (OVCAR-5 ovarian) [µM],TGI (OVCAR-8 ovarian) [µM],TGI (T-47D breast) [µM],TGI (UACC-257 melanoma) [µM],TGI (KM20L2 colon) [µM],GI50 (KM20L2 colon),GI50 (NCI-H522 lung)
Cc1ccc(O)c(C2=NNC(c3cccc(Cl)c3)C2)c1 (stereo not drawn),> 100,> 100,> 100,> 100 µM,44.5,> 100,53.6 µM,> 100,> 100,> 100,> 100,> 100,> 100,,,
Cc1nn(C(=O)c2ccc(Cl)cc2)c2c1C(c1ccc(Cl)cc1)SC(N)=N2 (stereo not drawn),> 10,> 10,> 10,> 10 µM,> 10,> 10,> 10 µM,> 10,> 10,> 10,> 10,> 10,> 10,,,
CC(=O)N1N=C(c2ccc3ccccc3c2O)CC1c1ccc(N(C)C)cc1 (stereo not drawn),> 100,> 100,> 100,> 100 µM,> 100,> 100,> 100 µM,> 100,> 100,> 100,> 100,> 100,> 100,,,
C=CCN1C(=O)CS/C1=N\NC(=O)CSc1nc2ccccc2c(=O)n1CC,> 100,> 100,> 100,> 100 µM,> 100,> 100,> 100 µM,> 100,> 100,> 100,> 100,> 100,> 100,,,
Cn1c(N)c(/C=C/C(=O)Oc2ccccc2)c(=O)n(C)c1=O,> 100,> 100,> 100,> 100 µM,> 100,> 100,> 100 µM,> 100,> 100,> 100,> 100,> 100,> 100,,,
NC(=O)NC(=O)c1cccc(NC(=O)CCl)c1,9.03,5.42,1.83,> 48.1 µM,5.93,5.28,3.32 µM,12,1.44,9.49,12.7,27.7,13.6,,,
COC(=O)C(=O)C(C(C)=O)C(=O)C(=O)Nc1ccc(C)cc1C (stereo not drawn),,,> 100,,,> 100,> 100 µM,,,> 100,> 100,,> 100,> 100,,
COc1ccc(NC(/C(C(=O)C(=O)/C=C(\O)c2ccccc2)=C(\O)c2ccccc2)c2ccc(OC)cc2)cc1 (stereo not drawn),> 100,> 100,> 100,75.6 µM,59.1,> 100,50.5 µM,> 100,94.1,> 100,> 100,81.4,> 100,,,
O=S(=O)(CF)OCCCCOS(=O)(=O)CF,,,> 100,> 100 µM,,> 100,> 100 µM,,> 100,,> 100,,,> 100,,
COc1cc2c(cc1O)C(=O)O[C@@H]1CC=C3CCN(C)[C@H]3[C@H]21,> 25,> 25,> 25,> 25 µM,> 25,> 25,> 25 µM,> 25,> 25,> 25,> 25,> 25,> 25,,,
CCCCCC(/C=C/c1ncccc1OCCCCCC(=O)O)=N\NC1=NCCN1,,,> 100,> 100 µM,,> 100,> 100 µM,,> 100,> 100,> 100,,,> 100,,
CCOC(=O)c1ccn2c(c1)c(C#N)c1nc3ccccc3nc12,,,> 100,> 100 µM,,,> 100 µM,,> 100,> 100,> 100,,> 100,> 100,,
N#CCCN(CCC#N)c1ccc(/C=C(/NC(=O)Nc2ccccc2Cl)NC(=O)c2cc([N+](=O)[O-])ccc2Cl)cc1,,,> 100,> 100 µM,,> 100,> 100 µM,,> 100,> 100,> 100,,,> 100,,
Oc1cccc2ccc(Br)nc12,> 100,> 100,> 100,> 100 µM,> 100,> 100,> 100 µM,> 100,> 100,> 100,> 100,> 100,> 100,,,
C1=Cc2cccc3occ(c23)C=C1,> 100,> 100,> 100,> 100 µM,> 100,> 100,> 100 µM,> 100,> 100,> 100,> 100,> 100,> 100,,,
Cc1cc(C)c(C(=O)C(C)C(c2ccccc2)c2ccc(Cl)cc2)c(C)c1 (stereo not drawn),,,> 100,71.9 µM and > 100 µM,,> 100,> 100 µM and 65.5 µM,,> 100,,> 100,,> 100,> 100,> 100 µM and 47.2 µM,> 100 µM and 15.9 µM
CC(=O)OC(C)c1cc2c(s1)C(=O)c1ccsc1C2=O (stereo not drawn),0.347,0.242,0.769,0.246 µM,0.0301,3.79,0.354 µM,0.992,0.192,0.994,0.68,1.79,0.156,,,
CCOC(=O)CCc1ccc(NC(=O)/C=C/c2ccc([N+](=O)[O-])o2)cc1,4.79,6.39,2.01,3.14 µM,0.845,25.5,0.548 µM,5.37,2.88,6.4,2.28,40.8,2.71,,,
CC(C)=CCOc1ccc(-c2coc3cc4c(c(O)c3c2=O)C=CC(C)(C)O4)cc1,,,> 100,,,> 100,38.9 µM,,> 100,> 100,> 100,,> 100,> 100,,

Structure (SMILES),TGI (BT-549 breast) [µM],TGI (DU-145 prostate) [µM],TGI (HCT-116 colon) [µM],TGI (MALME-3M melanoma),TGI (MDA-MB-435) [µM],TGI (NCI-H226 lung) [µM],TGI (NCI-H522 lung),TGI (NCI/ADR-RES ovarian) [µM],TGI (OVCAR-3 ovarian) [µM],TGI (OVCAR-5 ovarian) [µM],TGI (OVCAR-8 ovarian) [µM],TGI (T-47D breast) [µM],TGI (UACC-257 melanoma) [µM],TGI (KM20L2 colon) [µM],GI50 (KM20L2 colon),GI50 (NCI-H522 lung)
C[C@]12CC[C@H](O)CC1=CC[C@@H]1[C@@H]2CC[C@]2(C)NC(=O)/C(=C\c3ccccc3)C[C@@H]12,32.7,33.5,37,30.3 µM,37.8,34.3,23.1 µM,53,26.2,27.9,47.6,47,48.6,,,
C[C@H]1S[C@H](c2c(F)cccc2F)n2c1nc1ccccc12,> 100,> 100,> 100,> 100 µM,> 100,> 100,,> 100,> 100,> 100,> 100,> 100,> 100,,,
Cc1ccc(CN2CCN(Cc3ccc(C)o3)C(C)C2)o1 (stereo not drawn),> 100,> 100,> 100,> 100 µM,> 100,> 100,> 100 µM,> 100,> 100,> 100,> 100,> 100,> 100,,,
COC(=O)C1=COC2OC3CC1C2C(C)O3 (stereo not drawn),> 100,> 100,> 100,> 100 µM,> 100,> 100,> 100 µM,> 100,> 100,> 100,> 100,> 100,> 100,,,
Cc1cc(S(=O)(=O)NC2=NCC(C)(C)CN2)c(S)cc1Cl,> 100,> 100,75.8,> 100 µM,85.1,94.8,81.2 µM,> 100,> 100,51.1,71.8,> 100,> 100,,,
c1ccc(COC[C@H]2C3OCC([C@H](OCc4ccccc4)[C@H]3OCc3ccccc3)N2Cc2ccccc2)cc1 (stereo partly drawn),> 100,> 100,> 100,> 100 µM,> 100,> 100,> 82 µM,> 100,> 100,> 100,> 100,> 100,> 100,,,
COc1ccc(/C=C/c2nc(=S)[nH][nH]2)cc1OC,,,> 100,> 100 µM,,> 100,,,> 100,> 100,> 100,,> 100,> 100,,
Cn1c(=O)[nH]c2c(c1=O)C(=O)CN2,,,> 100,> 100 µM,,> 100,,,,> 100,> 100,,> 100,> 100,,
CC(C)(C)NC(=S)N/N=C/c1ccccn1,> 100,> 100,1.02,> 100 µM,> 100,> 25.9,> 86.9 µM,> 100,> 100,> 100,> 40.7,> 100,,,,
COC1C(=O)N(SC)C1c1ccccc1Cl (stereo not drawn),54.2,> 100,24.4,44.4 µM,53.9,,33.5 µM,> 100,34.3,32.2,39.4,58.5,> 100,,,
Cc1cnc2[nH]c(-c3ccc(Cl)cc3)cc(=O)c2c1,> 100,> 69.8,> 29.3,> 100 µM,1.97,> 100,> 100 µM,> 26.3,> 24.4,> 31.6,> 100,> 100,> 100,,,
CCOc1nc2sc3c(c2c(=O)n1CCSSCCn1c(OCC)nc2sc4c(c2c1=O)CCCC4)CCCC3,> 100,> 100,> 100,> 100 µM,> 100,> 100,,> 100,> 100,> 100,> 100,> 100,> 100,,,
CC1(C)CCC[C@@]2(C)C1CC[C@@]1(CO1)[C@@H]2/C=C\C(C=O)CC=O (stereo partly drawn),> 100,> 100,> 100,> 100 µM,> 100,> 100,> 100 µM,> 100,> 100,> 100,> 100,> 100,> 100,,,
COc1cc(-c2ccccc2)cn2c1nc1ccccc12,32.9,> 100,39.5,41.9 µM,43.4,39.7,40.6 µM,66.7,40.8,31.7,64.4,83.6,47.5,,,
N#Cc1c(N)c2c(c(-c3ccccc3)c1-c1ccccc1)C(=O)N(O)C2=O,> 100,> 100,82.4,> 100 µM,> 100,62.8,> 100 µM,> 100,> 100,> 100,> 100,73.9,> 100,,,
CC1=NNC(=O)C1C1C=C(c2c[nH]c3ccccc23)OC1=O (stereo not drawn),> 100,> 100,> 100,> 100 µM,> 100,> 100,> 100 µM,> 100,> 100,> 100,> 100,> 100,> 100,,,
O=C(NCCN(CCNC(=O)c1cccc(=O)n1O)CCNC(=O)c1cccc(=O)n1O)c1cccc(=O)n1O,> 100,> 100,,> 100 µM,> 100,> 100,> 100 µM,> 100,> 100,> 100,> 100,> 100,> 100,,,
COc1cc(C(=O)OC2CC34CCNC35CC(OC5(OC)C2O)c2cc3c(cc24)OCO3)ccc1O (stereo not drawn),> 100,> 100,> 100,> 100 µM,> 100,> 100,> 100 µM,> 100,> 100,> 100,> 100,> 100,> 100,,,
CCC(=O)CCC1=Nc2nnc(CCCCc3nnc4n3C(=O)C(CCC(=O)CC)=N4)n2C1=O,,,,> 100 µM,,> 100,> 100 µM,,> 100,> 100,> 100,,> 100,> 100,,

# Reference: PubChem BioAssay (NCI)
